Laboratory results published in patent US10980764B1, “Exogenous ketone supplements for reducing anxiety-related behavior” (priority 2016, dated 2021).

Key:
SPD rats = assay: EPM after 83 days chronic feeding, SPD rats, Study 3; type: in vivo, rat; details: chronic feeding 83 days, compared to control (SD)
Description: Generally, exogenous ketone supplementation was tested by adding to food and feeding chronically for 83 days in SPD rats and administering sub-chronically for 7 days in both rat models by daily intragastric gavage bolus, followed by assessment of anxiety measures on EPM. The groups included standard diet (SD) or SD+ketone supplementation.
EPM (Coulbourn Instruments) was used to assess anxiety-related behavior of the rats after 83 days of chronic feeding or after 7 days of oral gavage. EPM experiments were carried out under non-stress conditions (in dimly lit and quiet room) between 12.00 and 14.00 hours.
The rats were transferred in their home cage to the experimental room 30 min prior to beginning the experiment. Briefly, rats were placed in the intersection of the four arms of the EPM, facing the open arm opposite to where the experimenter was and their behavior was recorded for 5 minutes. The amount of time spent and number of entries made on the open arms, closed arms and the center zones were video recorded. Latency to entry into the closed arms and the distance travelled in each zones was also measured in chronically treated SPD rats. […] At the end of the 5-minute test, the rats were removed from the maze and placed back into their home cage. The maze was cleaned with 70% alcohol and after it with tap water and dried with paper towel between rats. The primary method for data collection was a video-tracking system with computer interface and video camera (SMART V3.0 PLATFORM, Panlab, Harvard Apparatus, USA), to automatically collect behavioral data in SPD rats. A blinded observer was present in the testing room separated from the maze by a curtain, and collected EPM data in both SPD and WAG/Rij animals.
Results were considered significant when p<0.05.

[1] = Body weight, SPD rats, Study 1; type: in vivo, rat; details: for Body Weight (7 days), Mean Diff., Tukey's multiple comparisons test: in g (unit assumed)
Description: The body weight of all animals was recorded before ketone treatments started (before) and after the last ketone treatments (after).
Results were considered significant when p<0.05. […]

[2] = tested on: Sprague-Dawley (SPD) rats; assay: Elevated plus maze (EPM) after 83 days chronic feeding, Study 1; type: in vivo, rat; details: compared to control (SD)
Description: Generally, exogenous ketone supplements were tested and fed chronically for 83 days and administered sub-chronically for 7 days by gavage, followed by assessment of anxiety measures on elevated plus maze (EPM) on 97 male SPD rats.
(§1) In order to familiarize the animals to the intragastric gavage method, tap water was gavaged for 5 days before ketone supplementation. A total of 48 male SPD rats were fed for 83 days with either standard rodent chow (SD)+water application (˜25 g/kg b.w. water/day) (SD/control group; n=9) or SD+ketone supplementation by gavage.
(§2) EPM (COULBOURN Instruments) was used to assess anxiety-related behavior of the rats after 83 days of chronic feeding or after 7 days of oral gavage. EPM experiments were carried out under non-stressful conditions (in a dimly lit and quiet room) between 12.00 and 14.00 hours.
(§3) The rats were transferred in their home cage to the experimental room 30 min prior to beginning the experiment. Briefly, rats were placed in the intersection of the four arms of the EPM, facing the open arm opposite to where the experimenter was and their behavior was recorded for 5 minutes. The amount of time spent and number of entries made on the open arms, closed arms and the center zones were recorded. Latency to entry into the closed arms and the distance travelled in each zones was also measured in chronically treated SPD rats. Notes were made on other ethological measures such as number of rears, head dips, fecal boli, and freezing, or stretched-attend postures.
(§4) At the end of the 5-minute test the rats were removed from the maze and placed back into their home cage. The maze was cleaned with 70% alcohol and after it with tap water and dried with paper towel between rats. The primary method for data collection was a video-tracking system with computer interface and video camera (SMART V3.0 PLATFORM, PANLAB, Harvard Apparatus, USA), to automatically collect behavioral data in SPD rats. A blinded observer was present in the testing room separated from the maze by a curtain, and manually collected EPM data in both SPD and WAG/Rij animals at the end of treatments.
(§5) All data are presented as the mean±standard error of the mean (SEM). The effects of ketone supplementations on anxiety level were compared, as well as on blood βHB and glucose levels to control or/and baseline levels. Data analysis was performed using GraphPad PRISM version 6.0a. Results were considered significant when p<0.05. Significance was determined by unpaired t-test. Blood ketone, blood glucose, and body weight change were compared using a two-way ANOVA with Tukey's multiple comparisons test and unpaired t-test.

[3] = tested on: Sprague-Dawley (SPD) rats; assay: EPM after 7 days oral gavage, SPD rats, Study 1; type: in vivo, rat; details: compared to control (SD); for Time spent in the center: 7 days (gavage 5 g/kg b.w./day or KD fed)
Description: as §2, §3, §4, §5

[4] = Blood βHB and glucose levels (PRECISION XTRA), SPD rats, Study 1; details: for Glucose, Mean Diff., Tukey's multiple comparisons test (Compare S-D to WagRij) / βHB, Mean Diff., Tukey's multiple comparisons test (Compare S-D to WagRij): S-D (SPD) rats, own Baseline minus 7 days of the same group; for Blood glucose levels: at 24 hours; for Blood βHB (90 days), Mean Diff., Tukey's multiple comparisons test: chronic feeding, After:SD (control) minus After:treated group
Description: as §1
In the chronic feeding study, blood βHB and glucose levels were measured 24 hours before the 1st day of ketone treatments (baseline levels) and after the 13th week of ketone treatment. In the 7-day oral gavage studies, blood βHB and glucose levels were measured 24 hours before the 1st day of ketone treatments (baseline levels; SPD and WAG/Rij rats) and after the 1st day (SPD rats) and the 7th day (SPD and WAG/Rij rats) of ketone gavaging. In acute study, blood βHB and glucose levels were measured 40 min after ketone treatment. Whole blood samples (10 μL) were taken from the saphenous vein for analysis of blood glucose (mg/dl) and βHB (mmol/1) levels with the commercially available glucose and ketone monitoring system PRECISION XTRA™ (ABBOTT Laboratories, Abbott Park, Ill., USA). The PRECISION XTRA™ ketone monitoring system only measures βHB blood levels; therefore, total blood ketone levels would be higher than measured.
as §5

WAG/Rij rats = assay: EPM after 7 days oral gavage, WAG/Rij rats, Study 1; type: in vivo, rat; details: 7 days gavage ~2.5 g/kg b.w./day, compared to control (SD)
Description: To extend the results and ensure that the results were not strain dependent, exogenous ketone supplements were tested on both SPD rats and Wistar Albino Glaxo/Rijswijk (WAG/Rij) rats for 7 days by gavage (5 g/kg/day and 2.5 g/kg/day, respectively, SD+KE and SD+KS), as WAG/Rij rats show reduced activity of GABAergic system (Luhmann H J, et al. Impairment of intracortical GABAergic inhibition in a rat model of absence epilepsy. Epilepsy Res. 1995 September; 22(1):43-51).
as §2, §3, §4
Results were considered significant when p<0.05. Significance was determined by unpaired t-test.

[5] = After:SD (control) minus After:treated group
[6] = SPD rats, 7 days of gavaging, compared to baseline
[7] = SPD rats, after 83 days of chronic feeding, compared to control
[8] = SPD rats, 24h:SD (control) minus 24h:treated group

With Na^+/K^+-βHB mineral salt [KS] the “Distance traveled in the center” value (SPD rats) was “more”, the “Distance traveled in the closed arms” value (SPD rats) was “significantly less” and the “Distance traveled in the open arms” value (SPD rats) was “significantly greater”. For the same molecule, the “Time spent in the center” value (SPD rats) was “significantly more”, the “Time spent in the closed arms” value (SPD rats) was “significantly less” and the “Body Weight (7 days), Mean Diff., Tukey's multiple comparisons test” value [1, 5] was 48.25. For the same molecule, the “Time spent in the open arms” value ([2]; chronic feeding 83 days (~25 g/kg b.w./day; LKE ~10)) was “significantly more”, the “Distance traveled in the center” value ([2]; chronic feeding 83 days) was “more” and the “Distance traveled in the closed arms” value ([2]; chronic feeding 83 days) was “significantly less”. The “Distance traveled in the open arms” value ([2]; chronic feeding 83 days) was “significantly greater”, the “Latency to first entrance of closed arms” value ([2]; chronic feeding 83 days) was “significantly greater” and the “Time spent in the center” value ([2]; chronic feeding 83 days) was “significantly more”. For the same molecule, the “Time spent in the closed arms” value ([2]; chronic feeding 83 days) was “significantly less”, the “Time spent in the center” value [3] was “decreased” and the “Entries to the center” value ([3]; 7 days gavage 5 g/kg b.w./day) was “fewer times”. The “Entries to the closed arms” value ([3]; 7 days gavage 5 g/kg b.w./day) was “less frequent”, the “Glucose, Mean Diff., Tukey's multiple comparisons test (Compare S-D to WagRij)” value [4] was -0.3258 mg/dL and the “βHB, Mean Diff., Tukey's multiple comparisons test (Compare S-D to WagRij)” value [4] was −0.4455 mmol/1. The “Blood βHB” value [4, 6] was “significant difference”, the “Blood βHB” value [4, 7] was “elevated” and the Blood glucose levels ([4]; SPD rats, compared to baseline) was “lower”. For the same molecule, the “Blood βHB (90 days), Mean Diff., Tukey's multiple comparisons test” value ([4]; SPD rats) was −0.3653 mmol/1, the “Blood βHB (7 days), Mean Diff., Tukey's multiple comparisons test” value ([4]; SPD rats, 7days:SD (control) minus 7days:treated group) was −0.547 mmol/1 and the “Entries to the closed arms” value (WAG/Rij rats) was “less frequent”. The “Time spent in the closed arms” value (WAG/Rij rats) was “less time” and the “Time spent in the open arms” value (WAG/Rij rats) was “more time”.

For CC(=O)CC(=O)OCCC(C)OC(=O)CC(C)=O (stereo not shown) [KE, 1,3-butanediol-acetoacetate diester], the “Distance traveled in the closed arms” value (SPD rats) was “significantly less”, the “Time spent in the closed arms” value (SPD rats) was “significantly less” and the “Body Weight (7 days), Mean Diff., Tukey's multiple comparisons test” value [1, 5] was 37.03. The Body weight ([1]; after chronic feeding (week 13), compared to control, listed as SD+LKE) was “higher”, the “Body Weight (90 days), Mean Diff., Tukey's multiple comparisons test” value ([1]; chronic feeding, After:SD (control) minus After:treated group) was 73.96 and the “Distance traveled in the closed arms” value ([2]; chronic feeding 83 days) was “significantly less”. The “Latency to first entrance of closed arms” value ([2]; chronic feeding 83 days) was “significantly greater”, the “Time spent in the center” value [3] was “decreased” and the “Time spent in the open arms” value ([3]; 7 days gavage 5 g/kg b.w./day) was “increased”. The “Glucose, Mean Diff., Tukey's multiple comparisons test (Compare S-D to WagRij)” value [4] was -1.841 mg/dL, the “βHB, Mean Diff., Tukey's multiple comparisons test (Compare S-D to WagRij)” value [4] was −0.1389 mmol/1 and the “Blood βHB levels” value ([4]; SPD rats, 24 hours after a single gavage, compared to baseline) was “elevated”. For the same molecule, the “Blood βHB” value [4, 6] was “did not change”, the “Blood βHB” value [4, 7] was “elevated” and the Blood glucose levels ([4]; SPD rats, compared to baseline) was “lower”. The Blood glucose levels ([4]; SPD rats, compared to control group) was “lower”, the “Blood βHB (90 days), Mean Diff., Tukey's multiple comparisons test” value ([4]; SPD rats) was −0.2978 mmol/1 and the Blood glucose ([4]; SPD rats, from baseline to 7 days) was “did not change”. For the same molecule, the “Blood Glucose (7 days), Mean Diff., Tukey's multiple comparisons test” value (shortened to “Blood Glucose (7 days)”) [4, 8] was 33.11 mg/dL, the “Blood βHB (7 days), Mean Diff., Tukey's multiple comparisons test” value [4, 8] was −0.5235 mmol/1 and the “Blood Glucose (7 days)” value ([4]; SPD rats, 24h minus 7days of the same group) was -23.02 mg/dL. The “Blood Glucose (7 days)” value ([4]; SPD rats, own Baseline minus 24h of the same group) was 21.18 mg/dL and the “Time spent in the center” value (WAG/Rij rats) was “more time”.
